# Results reported in the supplement of paper PMC11208160.
# Experiment: recombinant barcode read abundance after kanamycin selection (control-corrected) (log10(CPM+1)); higher = more efficient recombination; sequences stand for … in AGTGCAGAGAAAATCGGCCAGTTTTCTCTGCCTGCAGTCCGCATGCCGT…AGATTTATGCAGCGGACTGCCTTTCTCCCAAAGTGATAAACCGGACAGTATCATGGACCGGTTTTCCCGGTAATCCGTATTTGCAAGGTTGGTTTCACT; site = the 11-nt target
# Description: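 Pooled E. coli target-specificity screen for the IS621 bridge recombinase. Each library plasmid pairs an 11-nt target (CT core) with a bridge RNA whose target-binding loop (9-nt LTG + 4-nt RTG) is reprogrammed; the rest of the 177-nt WT IS621 bridge RNA scaffold is fixed. The plasmid is co-electroporated with a WT donor plasmid; recombinase is induced with 0.1 mM IPTG and recombinants are selected on kanamycin. Recombinant barcodes are sequenced, converted to CPM, averaged over two biological replicates and corrected by the unselected control CPM. Molecule = full bridge RNA written as DNA: LTG = specificity nt 1-9, RTG = reverse complement of specificity nt 8-11, in the WT scaffold.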
# 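Note: IS621 recombinase and bridge RNA in Escherichia coli cells.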
row,Sequence,recombinant barcode read abundance (log10)
1,ACCAAATCTTGGGTTCTAACCTGTTGCTA (site ACCAAATCTCG),0.356
2,ACCAAATCTTGGGTTCTAACCTGTTGCTA (site ACCAAATCTTA),0.23
3,ACCAAGTCTTGGGTTCTAACCTGTTGCGT (site ACCAAGTCTAC),1.98
4,ACCAAGTCTTGGGTTCTAACCTGTTGCGT (site ACCAAGTCTGC),0.326
5,ACCAATACTTGGGTTCTAACCTGTTGCCT (site ACCAATACTAG),0.0309
6,ACCAATACTTGGGTTCTAACCTGTTGCCT (site ACCAATCCTAG),0.122
7,ACCAATACTTGGGTTCTAACCTGTTGCCT (site ACCAATGCTAG),0.939
8,ACCAATACTTGGGTTCTAACCTGTTGCCT (site ACCAATTCTAG),0.0138
9,ACCAATGCTTGGGTTCTAACCTGTTGCCT (site ACCAATACTAG),0.182
10,ACCAATGCTTGGGTTCTAACCTGTTGCCT (site ACCAATCCTAG),0.136
11,ACCAATGCTTGGGTTCTAACCTGTTGCCT (site ACCAATGCTAG),0.0431
12,ACCAATGCTTGGGTTCTAACCTGTTGCCT (site ACCAATTCTAG),0.163
13,ACCAATTCTTGGGTTCTAACCTGTTGCCT (site ACCAATACTAG),0.059
14,ACCAATTCTTGGGTTCTAACCTGTTGCCT (site ACCAATCCTAG),0.111
15,ACCAATTCTTGGGTTCTAACCTGTTGCCT (site ACCAATGCTAG),0.0727
16,ACCAATTCTTGGGTTCTAACCTGTTGCCT (site ACCAATTCTAG),0.483
17,ACCCAACCTTGGGTTCTAACCTGTTGCCT (site ACCCAAACTAG),0.242
18,ACCCAACCTTGGGTTCTAACCTGTTGCCT (site ACCCAACCTAG),1.58
19,ACCCAACCTTGGGTTCTAACCTGTTGCCT (site ACCCAAGCTAG),0.104
20,ACCCAACCTTGGGTTCTAACCTGTTGCCT (site ACCCAATCTAG),0.0366
21,ACCCAATCTTGGGTTCTAACCTGTTGCCT (site ACCCAAACTAG),0.266
22,ACCCAATCTTGGGTTCTAACCTGTTGCCT (site ACCCAACCTAG),0.0978

row,Sequence,recombinant barcode read abundance (log10)
1,ACCCAATCTTGGGTTCTAACCTGTTGCCT (site ACCCAAGCTAG),0.207
2,ACCCAATCTTGGGTTCTAACCTGTTGCCT (site ACCCAATCTAG),1.47
3,ACCCACACTTGGGTTCTAACCTGTTGCCG (site ACCCACACTCG),1.8
4,ACCCACACTTGGGTTCTAACCTGTTGCCG (site TCCCACACTTG),0.111
5,ACCGAGACTTGGGTTCTAACCTGTTGCGG (site ACCGAGACTCC),2.7
6,ACCGAGACTTGGGTTCTAACCTGTTGCGG (site AGTGAGACTCC),0.0628
7,ACCGAGTCTTGGGTTCTAACCTGTTGCCT (site AACGAGTCTAG),0.202
8,ACCGAGTCTTGGGTTCTAACCTGTTGCCT (site ACCGAGTCTAG),1.85
9,ACCGAGTCTTGGGTTCTAACCTGTTGCCT (site AGCGAGTCTAG),0.164
10,ACCGAGTCTTGGGTTCTAACCTGTTGCCT (site ATCGAGTCTAG),0.387
11,ACCGCTACTTGGGTTCTAACCTGTTGCCT (site ACCGCTACTAG),0.176
12,ACCGCTACTTGGGTTCTAACCTGTTGCCT (site AGCGCTACTAG),0.0813
13,ACCGGGACTTGGGTTCTAACCTGTTGCCT (site ACCGAGACTAG),0.285
14,ACCGGGACTTGGGTTCTAACCTGTTGCCT (site ACCGCGACTAG),0.159
15,ACCGGGACTTGGGTTCTAACCTGTTGCCT (site ACCGGGACTAG),1.14
16,ACCGGGACTTGGGTTCTAACCTGTTGCCT (site ACCGTGACTAG),0
17,ACCGGTACTTGGGTTCTAACCTGTTGCCT (site ACCAGTACTAG),0.408
18,ACCGGTACTTGGGTTCTAACCTGTTGCCT (site ACCCGTACTAG),0.014
19,ACCGGTACTTGGGTTCTAACCTGTTGCCT (site ACCGGTACTAG),0.508
20,ACCGGTACTTGGGTTCTAACCTGTTGCCT (site ACCTGTACTAG),0.0135
21,ACCTAACCTTGGGTTCTAACCTGTTGCAG (site ACCTAACCTCT),1.22
22,ACCTAACCTTGGGTTCTAACCTGTTGCAG (site TCCTAACCTCA),0.0355

row,Sequence,recombinant barcode read abundance (log10)
1,ACCTGTCCTTGGGTTCTAACCTGTTGCCT (site ACCTGACCTAG),0.269
2,ACCTGTCCTTGGGTTCTAACCTGTTGCCT (site ACCTGCCCTAG),0.0321
3,ACCTGTCCTTGGGTTCTAACCTGTTGCCT (site ACCTGGCCTAG),0.173
4,ACCTGTCCTTGGGTTCTAACCTGTTGCCT (site ACCTGTCCTAG),0.986
5,ACCTTAACTTGGGTTCTAACCTGTTGCCT (site ACCTTAACTAG),0.166
6,ACCTTAACTTGGGTTCTAACCTGTTGCCT (site ATCTCAACTAG),0
7,ACCTTGCCTTGGGTTCTAACCTGTTGCTA (site ACCTTGCCTTA),0.478
8,ACCTTGCCTTGGGTTCTAACCTGTTGCTA (site TGGAGAGCTCT),0.0461
9,ACGAACGCTTGGGTTCTAACCTGTTGCCT (site ACGAACGCTAG),1.64
10,ACGAACGCTTGGGTTCTAACCTGTTGCCT (site ACGACCGCTAG),0.344
11,ACGAACGCTTGGGTTCTAACCTGTTGCCT (site ACGAGCGCTAG),0.085
12,ACGAACGCTTGGGTTCTAACCTGTTGCCT (site ACGATCGCTAG),0.14
13,ACGAAGCCTTGGGTTCTAACCTGTTGCCT (site ACGAAGCCTAG),1.35
14,ACGAAGCCTTGGGTTCTAACCTGTTGCCT (site GCGACGCCTAG),0.19
15,ACGACTCCTTGGGTTCTAACCTGTTGCCT (site ACGACTACTAG),0.467
16,ACGACTCCTTGGGTTCTAACCTGTTGCCT (site ACGACTCCTAG),0.618
17,ACGACTCCTTGGGTTCTAACCTGTTGCCT (site ACGACTGCTAG),0.117
18,ACGACTCCTTGGGTTCTAACCTGTTGCCT (site ACGACTTCTAG),0.0781
19,ACGAGTCCTTGGGTTCTAACCTGTTGCCT (site ACGAGTCCTAC),0.112
20,ACGAGTCCTTGGGTTCTAACCTGTTGCCT (site ACGAGTCCTAG),1.36
21,ACGCACTCTTGGGTTCTAACCTGTTGCCT (site ACGCAATCTAG),0.02
22,ACGCACTCTTGGGTTCTAACCTGTTGCCT (site ACGCACTCTAG),0.131
